This note sets out measurements from publication PMC12141046 (2025).

What is called apparent Kd is the concentration giving half-maximal binding under the conditions of the assay.

The test system of experiment [1] is G4 MYC (DNA, G4) TGAGGGTGGGTAGGGTGGGTAA
As to the kind of experiment: fluorescent intercalator displacement. The note with it: 100 mM K+, 10 mM lithium cacodylate pH 7.3, thiazole orange displaced.

Experiment [2] deals with dsDNA (DNA, duplex) CAATCGGATCGAATTCGATCCGATTG
The experiment in a line: fluorescent intercalator displacement. The following applies: 100 mM K+, 10 mM lithium cacodylate pH 7.3, thiazole orange displaced.

Experiment [3] relates to G4 MYC (DNA, G4) TGAGGGTGGGTAGGGTGGGTAA
As to the kind of experiment: CD titration. The following applies: 100 mM Li+, 10 mM Tris-HCl pH 7.4, 20 °C, 10 µM DNA.

Experiment [4] has as its system G4 KIT1 (DNA, G4) AGGGAGGGCGCTGGGAGGAGGG
As to the kind of experiment: CD titration. The note with it: 100 mM Li+; 10 mM Tris-HCl pH 7.4, 20 °C; 10 µM DNA; 405 nm illuminated; G4 induction.

For the compound `NCCOc1cc(NC(=O)c2ccc3c(c2)/N=N/c2cc(-c4ccc(N5CCCCC5)cc4)ccc2CC3)nc2ccccc12`, in experiment [1], the “apparent Kd” value was determined as 760 ± 130 nM.
Regarding `NCCOc1cc(NC(=O)c2ccc3c(c2)/N=N/c2cc(-c4ccc5cccnc5c4)ccc2CC3)nc2ccccc12`, the “apparent Kd” value in experiment [1] turned out to be 1000 ± 30 nM.
`NCCOc1cc(NC(=O)c2ccc3c(c2)/N=N/c2cc(-c4ccc5ncccc5c4)ccc2CC3)nc2ccccc12`: the “apparent Kd” value in experiment [1] turned out to be 940 ± 30 nM.
On the same count and under the same terms, as for `NCCOc1cc(NC(=O)c2ccc3c(c2)/N=N/c2cc(-c4cnc5ccccc5c4)ccc2CC3)nc2ccccc12`, the figure is 970 ± 60 nM.
With `NCCOc1cc(NC(=O)c2ccc3c(c2)/N=N/c2cc(C4=CCN(CCNC(=O)CCOCCOCCOCCOCCNC(=O)CCCC[C@@H]5SC[C@@H]6NC(=O)N[C@@H]65)CC4)ccc2CC3)nc2ccccc12`, the DC50 in experiment [1] (normalized to trans isomer) was found to be 1580 ± 50 nM. In experiment [1] (derived from normalized DC50), the “apparent Kd” value turned out to be 630 ± 20 nM. Further, the binding entry in experiment [2] (highest 5 µM, 405 nm illuminated) was “no”.
As for `NCCOc1cc(NC(=O)c2ccc3c(c2)/N=N/c2cc(C4=CCNCC4)ccc2CC3)nc2ccccc12`, the binding entry in experiment [3] (405 nm illuminated, parallel G4 induction) is “yes”; in experiment [4] it was “yes”; in experiment [2] (405 nm illuminated), “no”. The DC50 in experiment [1] (normalized to trans isomer) came to 1150 ± 60 nM. Further, the “apparent Kd” value in experiment [1] (derived from DC50 normalized to trans isomer) was found to be 460 ± 20 nM.
For the compound `NCCOc1cc(NC(=O)c2ccc3c(c2)/N=N\c2cc(C4=CCNCC4)ccc2CC3)nc2ccccc12`, the binding entry in experiment [3] (dark, slight shift at 30 µM) is on record as “weak”; in experiment [2] (dark) it was “no”. Besides, the DC50 in experiment [1] (dark) stood at 12460 ± 650 nM. Besides, in experiment [1] (dark, b14 prints error as 0.65), the “apparent Kd” value came to 4970 ± 260 nM.
